Laboratory results taken from patent US9217743B2, “Screening method utilizing thalidomide-targeting factor” (Tokyo Institute of Technology, priority 2009, dated 2015).
Entries after “also recorded” stand apart in the source; their conditions may differ.

Experiments:
zCrbn YW/AA = target: T1, zCrbn YW/AA (Danio rerio, UniProt Q68EH9, W376A/Y374A); test: Binding of FLAG-zCrbn YW/AA from 293T lysate to thalidomide beads; design: species or system zebrafish; conditions: FLAG-zCrbn YW/AA in 293T lysate
T1 construct: expressed in transfected cells; host or cells: 293T
T1 sequence (Q68EH9 1-431 Y374A/W376A): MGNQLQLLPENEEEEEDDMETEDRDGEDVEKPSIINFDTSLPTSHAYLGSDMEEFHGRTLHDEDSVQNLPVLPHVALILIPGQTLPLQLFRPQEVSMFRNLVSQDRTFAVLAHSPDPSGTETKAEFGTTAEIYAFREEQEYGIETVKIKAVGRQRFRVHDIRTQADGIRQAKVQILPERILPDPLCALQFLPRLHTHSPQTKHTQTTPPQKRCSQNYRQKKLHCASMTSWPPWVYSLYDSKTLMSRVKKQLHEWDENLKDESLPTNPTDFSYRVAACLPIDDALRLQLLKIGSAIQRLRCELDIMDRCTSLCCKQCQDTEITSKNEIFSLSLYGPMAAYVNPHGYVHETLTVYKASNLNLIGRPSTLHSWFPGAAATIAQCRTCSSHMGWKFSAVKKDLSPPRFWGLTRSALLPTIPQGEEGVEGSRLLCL
Description: FIG. 14 relates to biochemical analysis results of zCrbn. […] Bound proteins were eluted by thalidomide, and eluate were analyzed by western blotting. zCrbn bound to thalidomide. (B) Lysate from 293T cells overexpressing FH-zCrbn was immunoprecipitated with anti-FLAG antibody, and DDB1 was detected by western blotting. […] (C) Lysate from FLAG-zCrbn (wild type) or FLAG-zCrbn YW/AA overexpressed in 293T cells was mixed with thalidomide beads. For quantification, various amounts of input and eluate fraction were analyzed by western blotting.
If so, its teratogenicity should be alleviated by expression of functionally active but thalidomide-binding-defective zCrbn. To examine this idea, the present inventors prepared mutants in which Y374 and W376 are substituted with alanine (corresponding to YW/AA in humans, namely Y384A/W386A). The zCrbn YW/AA has extremely low thalidomide-binding activity. In the absence of thalidomide, Overexpression of wild-type zCrbn or zCrbn YW/AA had no discernible effect on fin and otic vesicle development. […] Also thalidomide treatment of embryos overexpressing wild-type zCrbn reduced the size of otic vesicles to approximately 66% of the control size. […] Thalidomide-induced fin degeneration was also rescued by overexpression of zCrbn YW/AA.

DDB1 and CRBN = target: T2, DDB1 and CRBN (Homo sapiens, UniProt Q96SW2); test: Affinity purification from HeLa cell extracts with thalidomide-immobilized beads, competition by free thalidomide; type: binding; conditions: 0.3 mM free thalidomide added to HeLa extracts before the beads
T2 construct: endogenous in cells; host or cells: HeLa
Description: To purify thalidomide-binding proteins, the present inventors performed affinity purification using FG beads, which are magnetic particles (Cited Literature 9). FR259625, a thalidomide derivative in which a carboxyl group is added was covalently immobilized on the FG beads (FIG. 6), and mixed and incubated with human HeLa cell extracts. […] The 127 and 55 kDa proteins were analyzed by mass spectrometry and identified as DDB1 and CRBN, respectively (Table 1). Identities of these proteins were also confirmed by Western blotting (immunoblotting) (FIG. 1A), and further, these proteins were isolated similarly as thalidomide binding protein from extracts of various cell types (FIG. 7). To determine whether this interaction with thalidomide is direct, the present inventors purified recombinant proteins. CRBN-FLAG, but not DDB1-V5-His, bound to thalidomide-immobilized beads (FIG. 1B).

DDB1-V5-His = target: T3, DDB1-V5-His (Homo sapiens, UniProt Q16531); test: In vitro binding assay of purified recombinant protein with thalidomide-immobilized beads
T3 construct: made in house; host or cells: Sf9 insect cells (Bac-to-bac baculovirus)
Excerpt: (§1) Recombinant CRBN-FLAG and DDB1-V5-His proteins were expressed in the insect Sf9 cells by using the Bac-to-bac baculovirus expression system (Invitrogen) and purified using anti-FLAG M2 agarose beads (Sigma) and Ni-NTA agarose beads (Qiagen), respectively. Purified CRBN-FLAG and/or DDB1-V5-His were mixed with thalidomide-immobilized beads, and the bound proteins were eluted with an SDS sample buffer. For analysis of CRBN-deletion mutant, GST-fused CRBN and its mutants were expressed in E. coli BL21 and purified using glutathione Sepharose (GE Healthcare). CRBN mutants were overexpressed in 293T cells by transfection using Lipofectamine 2000 (Invitrogen). Subsequent binding assays were carried out as described above.

CRBN-FLAG = target: T4, CRBN-FLAG (Homo sapiens, UniProt Q96SW2); test: as above
T4 construct: made in house; host or cells: Sf9 insect cells (Bac-to-bac baculovirus)
Excerpt: as §1

[1] = target: T5, CRBN-containing E3 complex (Homo sapiens, UniProt Q96SW2); test: Autoubiquitination in live cells, 293T cells stably expressing FH-CRBN; type: cell-based; conditions: thalidomide 10, 30 and 100 μM, with MG132
T5 construct: expressed in transfected cells; host or cells: 293T stably expressing FH-CRBN
Description: (§2) The present inventors examined whether thalidomide would inhibit ubiquitination of the CRBN-containing E3 complex. 293T cells stably expressing FH-CRBN or FH-CRBN YW/AA were treated with MG132 and thalidomide (10, 30, and 100 μM) at similar concentration relative to the therapeutic doses used in human.
(§3) The assays were performed as described (Cited Literature 38). 293T cells stably expressing FH-CRBN or its mutant were treated with 10 μM MG132 or DMSO (vehicle) for three hours. The cells lysate were prepared using RIPA buffer containing 25 μM MG132 and 10 mM N-ethylmaleimide. FH-CRBN was immunoprecipitated and analyzed as described above. Various concentrations of thalidomide were added to cells one hour prior to MG132 treatment.

DDB1 = test: Elution of DDB1 from thalidomide-immobilized beads by test compound, Western blotting; conditions: Example 6; 293T extracts; elution with 1 mM compound
CRBN = CRBN (Homo sapiens, UniProt Q96SW2); test: Elution of CRBN from thalidomide-immobilized beads by test compound, Western blotting
CRBN YW/AA = target: T6, CRBN YW/AA (Homo sapiens, UniProt Q96SW2, W386A/Y384A); test: Autoubiquitination in live cells, 293T cells stably expressing FH-CRBN YW/AA; type: cell-based; conditions: thalidomide 10, 30 and 100 μM, with MG132
T6 construct: expressed in transfected cells; host or cells: 293T stably expressing FH-CRBN YW/AA
Description: as §2, §3

- yield of DDB1 and CRBN on the beads (DDB1 and CRBN): reduced significantly
- binding of thalidomide to recombinant DDB1-V5-His (DDB1-V5-His): indirectly via CRBN
- binding of thalidomide to recombinant CRBN-FLAG (CRBN-FLAG): directly binds
- CRBN eluted from thalidomide-immobilized beads by the compound (CRBN; 293T cell extracts, buffer containing 0.1 to 1 mM compound, one hour, Western blotting): eluted
- CRBN in the eluate fraction (CRBN; Example 6, 293T extracts, elution with 1 mM compound): detected
- autoubiquitination of CRBN YW/AA (CRBN YW/AA): not affected
Structure (SMILES): O=C1CCC(N2C(=O)c3ccccc3C2=O)C(=O)N1 (stereo not drawn) [thalidomide]
- thalidomide-binding activity of zCrbn YW/AA (zCrbn YW/AA): extremely low; also recorded: obviously weak
- autoubiquitination of wild-type CRBN [1]: potently inhibited; also recorded: suppressed
- DDB1 in the eluate fraction (DDB1): detected
